Literature values in patent US20050060811A1, “Fabric care article and method for conserving energy” (The Procter & Gamble Company, priority 2000, published 2005).

Settings: for water solubility: in water

water solubility	SMILES	solubility in water
about 2.67%	OCCOc1ccccc1 [2-phenoxyethanol]	
about 2%	OCCc1ccccc1 [2-phenylethanol]	
about 0.46%	O=[N+]([O-])C1(Br)COCOC1 [Bronidox L, 5-bromo-5-nitro-1,3-dioxane]	
about 25%	O=[N+]([O-])C(Br)(CO)CO [Bronopol, 2-bromo-2-nitropropane-1,3-diol]	
more than 50%	CC1(C)C(=O)N(CO)C(=O)N1CO [DMDM hydantoin, 1,3-bis(hydroxymethyl)-5,5-dimethyl-2,4-imidazolidinedione]	
	ClC=CC[N+]12CN3CN(CN(C3)C1)C2.[Cl-] [Dowicil 200, 1-(3-Chlorallyl)-3,5,7-triaza-1-azoniaadamantane chloride]	freely soluble in water
about 4%	OCc1ccccc1 [benzyl alcohol]	
about 1.8%	[H]/N=C(\N/C(=N/[H])NCCCCCCNC(=N)NC(=N)Nc1ccc(Cl)cc1)Nc1ccc(Cl)cc1 [chlorhexidine diacetate, 1,1′-hexamethylene bis(5-(p-chlorophenyl)biguanide)]	
about 70%	[H]/N=C(\N/C(=N/[H])NCCCCCCNC(=N)NC(=N)Nc1ccc(Cl)cc1)Nc1ccc(Cl)cc1 [chlorhexidine digluconate, 1,1′-hexamethylene bis(5-(p-chlorophenyl)biguanide)]	
about 0.8%	CC(C)(O)C(Cl)(Cl)Cl [chlorobutanol, 1,1,1-Trichloro-2-methylpropan-2-ol]	

SMILES	water solubility	solubility in water
[Na+].[O-][n+]1ccccc1[S-] [sodium pyrithione]	about 50%	
